In patent US12122761B2, “2-azaspiro[3.4]octane derivatives as M4 agonists” (NOVARTIS AG, priority 2019, dated 2024):

Molecular target: T1, Cloned human M1 receptor (CHRM1) stably expressed in HEK293 cells (Homo sapiens, UniProt P11229)
T1 construct: expressed in transfected cells; host or cells: HEK293
T1 sequence (P11229 1-460): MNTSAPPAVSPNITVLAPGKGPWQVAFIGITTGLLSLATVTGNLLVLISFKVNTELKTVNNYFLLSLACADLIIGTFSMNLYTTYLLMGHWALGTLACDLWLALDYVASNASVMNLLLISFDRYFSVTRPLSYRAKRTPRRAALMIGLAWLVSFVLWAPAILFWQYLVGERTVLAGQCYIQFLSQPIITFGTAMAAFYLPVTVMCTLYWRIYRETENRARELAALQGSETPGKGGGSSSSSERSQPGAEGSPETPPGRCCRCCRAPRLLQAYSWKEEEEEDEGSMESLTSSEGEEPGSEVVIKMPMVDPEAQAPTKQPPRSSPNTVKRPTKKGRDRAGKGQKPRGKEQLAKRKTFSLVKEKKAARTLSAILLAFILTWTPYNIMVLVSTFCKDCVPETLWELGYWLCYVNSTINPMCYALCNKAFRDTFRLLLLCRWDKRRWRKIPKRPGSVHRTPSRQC
Experiment: CHRM1 Ca++ Flux Assay (agonist mode, FDSS 7000EX)
Assay type: cell-based
Settings: for Emax: HEK293, Percent Activity, read-out: M1 FDSS PA; for EC50: geometric mean if tested more than once
Method in brief: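 Compounds tested as agonists at 11 concentrations in triplicate, with calcium traces captured over 3 minutes. Cells were HEK293 with stable human CHRM1 expression, plated overnight at 25K/well and loaded with calcium dye. Responses normalized to carbachol EC100 and fitted by four-parameter nonlinear regression.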

| Emax [%] | EC50 [µM] | SMILES |
| --- | --- | --- |
| 88 | 0.041 | c1ccc(C2CCN([C@@H]3CCC4(C3)CN(c3nncs3)C4)CC2)c(OC[C@@H]2COCCO2)c1 [Example 3C, 2-((R)-6-(4-(2-(((S)-1,4-dioxan-2-yl)methoxy)phenyl)piperidin-1-yl)-2-azaspiro[3.4]octan-2-yl)-1,3,4-thiadiazole] |
| 85 | 0.057 | c1ccc(C2CCN([C@@H]3CCC4(C3)CN(c3nnco3)C4)CC2)c(OC[C@@H]2COCCO2)c1 [Example 1E, 2-((R)-6-(4-(2-(((S)-1,4-dioxan-2-yl)methoxy)phenyl)piperidin-1-yl)-2-azaspiro[3.4]octan-2-yl)-1,3,4-oxadiazole] |
| 86 | 0.015 | O=C(C1COC1)N1CC2(CC[C@@H](N3CCC(c4ccccc4OCC4CC4)CC3)C2)C1 [Example 7I, (R)-(6-(4-(2-(cyclopropylmethoxy)phenyl)piperidin-1-yl)-2-azaspiro[3.4]octan-2-yl)(oxetan-3-yl)methanone] |
| 0 | 1.26 | COc1ccccc1C1CCN([C@@H]2CCC3(C2)CN(c2cnc(C)cn2)C3)CC1 [Example 5DD, (R)-6-(4-(2-methoxyphenyl)piperidin-1-yl)-2-(5-methylpyrazin-2-yl)-2-azaspiro[3.4]octane] |
| 99 | 0.093 | c1ccc(C2CCN([C@@H]3CCC4(C3)CN(c3nnco3)C4)CC2)c(-c2ncco2)c1 [Example 2M, (R)-2-(6-(4-(2-(oxazol-2-yl)phenyl)piperidin-1-yl)-2-azaspiro[3.4]octan-2-yl)-1,3,4-oxadiazole] |
| 72 | 0.024 | CC(C)Oc1ccccc1C1CCN([C@@H]2CCC3(C2)CN(C(=O)C2COC2)C3)CC1 [Example 7K, (R)-(6-(4-(2-isopropoxyphenyl)piperidin-1-yl)-2-azaspiro[3.4]octan-2-yl)(oxetan-3-yl)methanone] |
| 92 | 0.008 | c1ccc(C2CCN([C@@H]3CCC4(C3)CN(c3nncs3)C4)CC2)c(OC2COC2)c1 [Example 3A, (R)-2-(6-(4-(2-(oxetan-3-yloxy)phenyl)piperidin-1-yl)-2-azaspiro[3.4]octan-2-yl)-1,3,4-thiadiazole] |
| 79 | 0.031 | CC(C)(O)CCOc1ccccc1C1CCN([C@@H]2CCC3(C2)CN(c2nnco2)C3)CC1 [Example 1F] |
| 70 | 0.069 | c1ccc(C2CCN([C@@H]3CCC4(C3)CN(c3cncnc3)C4)CC2)c(OCC2COC2)c1 [Example 1N, (R)-6-(4-(2-(oxetan-3-ylmethoxy)phenyl)piperidin-1-yl)-2-(pyrimidin-5-yl)-2-azaspiro[3.4]octane] |
| 51 | 0.429 | c1ccc(C2CCN([C@@H]3CCC4(C3)CN(c3nnco3)C4)CC2)c(OCC2CCOCC2)c1 [Example 2G, (R)-2-(6-(4-(2-((tetrahydro-2H-pyran-4-yl)methoxy)phenyl)piperidin-1-yl)-2-azaspiro[3.4]octan-2-yl)-1,3,4-oxadiazole] |
| 75 | 0.009 | O=C(C1COC1)N1CC2(CC[C@@H](N3CCC(c4ccccc4OC4CC4)CC3)C2)C1 [Example 7A, (R)-(6-(4-(2-cyclopropoxyphenyl)piperidin-1-yl)-2-azaspiro[3.4]octan-2-yl)(oxetan-3-yl)methanone] |
| 114 | 0.003 | N#CCCOc1ccccc1C1CCN([C@@H]2CCC3(C2)CN(C(=O)C2COC2)C3)CC1 [Example 7D, (R)-3-(2-(1-(2-(oxetane-3-carbonyl)-2-azaspiro[3.4]octan-6-yl)piperidin-4-yl)phenoxy)propanenitrile] |
| 101 | 0.046 | O=C(C1COC1)N1CC2(CC[C@@H](N3CCC(c4ccccc4OC[C@@H]4CCOC4)CC3)C2)C1 [Example 7E, oxetan-3-yl((R)-6-(4-(2-(((R)-tetrahydrofuran-3-yl)methoxy)phenyl)piperidin-1-yl)-2-azaspiro[3.4]octan-2-yl)methanone] |
| 89 | 0.106 | Fc1ccc(C2CCOCC2)c(C2CCN([C@@H]3CCC4(C3)CN(c3nnco3)C4)CC2)c1 [Example 2I, (R)-2-(6-(4-(5-fluoro-2-(tetrahydro-2H-pyran-4-yl)phenyl)piperidin-1-yl)-2-azaspiro[3.4]octan-2-yl)-1,3,4-oxadiazole] |
| 60 | 0.215 | COc1ccc(F)cc1C1CCN([C@@H]2CCC3(C2)CN(c2ccnnc2)C3)CC1 [Example 5V, (R)-6-(4-(5-fluoro-2-methoxyphenyl)piperidin-1-yl)-2-(pyridazin-4-yl)-2-azaspiro[3.4]octane] |
| 78 | 0.042 | COc1ccccc1C1CCN([C@@H]2CCC3(C2)CN(c2nncs2)C3)CC1 [Example 3D, (R)-2-(6-(4-(2-methoxyphenyl)piperidin-1-yl)-2-azaspiro[3.4]octan-2-yl)-1,3,4-thiadiazole] |
| 82 | 0.159 | COC(C)(C)COc1ccccc1C1CCN([C@@H]2CCC3(C2)CN(C(=O)C2COC2)C3)CC1 [Example 7HH, (R)-(6-(4-(2-(2-methoxy-2-methylpropoxy)phenyl)piperidin-1-yl)-2-azaspiro[3.4]octan-2-yl)(oxetan-3-yl)methanone] |
| 34 | 0.537 | Cc1nccnc1N1CC2(CC[C@@H](N3CCC(c4ccccc4OCC(C)(C)O)CC3)C2)C1 [Example 5T, (R)-2-methyl-1-(2-(1-(2-(3-methylpyrazin-2-yl)-2-azaspiro[3.4]octan-6-yl)piperidin-4-yl)phenoxy)propan-2-ol] |
| 21 | 3.92 | c1ccc(C2CCN([C@H]3CCC4(C3)CN(c3nnco3)C4)CC2)c(C2CCOCC2)c1 (single isomer, unassigned) [Example 10T] |
| 67 | 0.062 | CC(C)(O)CCOc1ccccc1C1CCN([C@@H]2CCC3(C2)CN(c2ncns2)C3)CC1 [Example 3L, (R)-4-(2-(1-(2-(1,2,4-thiadiazol-5-yl)-2-azaspiro[3.4]octan-6-yl)piperidin-4-yl)phenoxy)-2-methylbutan-2-ol] |
| 72 | 0.201 | c1ccc(C2CCN([C@@H]3CCC4(C3)CN(c3cncnc3)C4)CC2)c(C2CCOCC2)c1 [Example 5BB, (R)-2-(pyrimidin-5-yl)-6-(4-(2-(tetrahydro-2H-pyran-4-yl)phenyl)piperidin-1-yl)-2-azaspiro[3.4]octane] |
| 90 | 0.012 | O=C(C1COC1)N1CC2(CC[C@@H](N3CCC(c4ccc(F)cc4OC(F)F)CC3)C2)C1 [Example 6B, (R)-(6-(4-(2-(difluoromethoxy)-4-fluorophenyl)piperidin-1-yl)-2-azaspiro[3.4]octan-2-yl)(oxetan-3-yl)methanone] |
| 85 | 0.324 | CC(C)(O)COc1ccccc1C1CCN([C@@H]2CCC3(C2)CN(C(=O)C2COC2)C3)CC1 [Example 7L, (R)-(6-(4-(2-(2-hydroxy-2-methylpropoxy)phenyl)piperidin-1-yl)-2-azaspiro[3.4]octan-2-yl)(oxetan-3-yl)methanone] |
| 0 | > 25 | COCCOc1ccccc1C1CCN([C@@H]2CCC3(C2)CN(c2cccnn2)C3)CC1 [Example 5X, (R)-6-(4-(2-(2-methoxyethoxy)phenyl)piperidin-1-yl)-2-(pyridazin-3-yl)-2-azaspiro[3.4]octane] |
| 69 | 0.54 | c1ccc(C2CCN([C@@H]3CCC4(C3)CN(c3nnco3)C4)CC2)c(CC2CCOCC2)c1 [Example 2L, (R)-2-(6-(4-(2-((tetrahydro-2H-pyran-4-yl)methyl)phenyl)piperidin-1-yl)-2-azaspiro[3.4]octan-2-yl)-1,3,4-oxadiazole] |
| 79 | 0.008 | O=C(C1COC1)N1CC2(CC[C@@H](N3CCC(c4ccccc4OC(F)(F)F)CC3)C2)C1 [Example 12A, (R)-oxetan-3-yl(6-(4-(2-(trifluoromethoxy)phenyl)piperidin-1-yl)-2-azaspiro[3.4]octan-2-yl)methanone] |
| 67 | 0.12 | O=C(N1CC2(CC[C@@H](N3CCC(c4ccccc4C4CCOCC4)CC3)C2)C1)C1(F)CC1 [Example 6E, (R)-(1-fluorocyclopropyl)(6-(4-(2-(tetrahydro-2H-pyran-4-yl)phenyl)piperidin-1-yl)-2-azaspiro[3.4]octan-2-yl)methanone] |
| 83 | 0.051 | c1ccc(C2CCN([C@@H]3CCC4(C3)CN(c3nncs3)C4)CC2)c(OC[C@H]2COCCO2)c1 [Example 3B, 2-((R)-6-(4-(2-(((R)-1,4-dioxan-2-yl)methoxy)phenyl)piperidin-1-yl)-2-azaspiro[3.4]octan-2-yl)-1,3,4-thiadiazole] |
| 11 | 1.55 | c1ccc(C2CCN([C@@H]3CCC4(C3)CN(c3cncnc3)C4)CC2)c(OCC2CCOCC2)c1 [Example 1M, (R)-2-(pyrimidin-5-yl)-6-(4-(2-((tetrahydro-2H-pyran-4-yl)methoxy)phenyl)piperidin-1-yl)-2-azaspiro[3.4]octane] |

| SMILES | Emax [%] | EC50 [µM] |
| --- | --- | --- |
| CC(C)COc1ccccc1C1CCN([C@@H]2CCC3(C2)CN(C(=O)C2COC2)C3)CC1 [Example 7F, (R)-(6-(4-(2-isobutoxyphenyl)piperidin-1-yl)-2-azaspiro[3.4]octan-2-yl)(oxetan-3-yl)methanone] | 75 | 0.042 |
